Reference: patent US6462047B1, “Carboline derivatives as cGMP phosphodiesterase inhibitors” (ICOS Corporation, priority 2001, dated 2002)

Tests used:
[1] = molecular target: human recombinant PDE5 (Homo sapiens, UniProt O76074); assay: Inhibitory effect on cGMP-PDE (one-step assay adapted from Wells et al.); type: biochemical; details: human recombinant PDE5, 0.15 μM 8-[H3]-cGMP, 30 minutes incubation, 2% DMSO
Procedure: cGMP-PDE activity of compounds of the present invention was measured using a one-step assay adapted from Wells et al., Biochim. Biophys. Acta, 384, 430 (1975). The reaction medium contained 50 mM Tris-HCl, pH 7.5, 5 mM magnesium acetate, 250 μg/ml 5′-Nucleotidase, 1 mM EGTA, and 0.15 μM 8-[H^3]-cGMP. The enzyme used was a human recombinant PDE5 (ICOS Corp., Bothell, Wash.).
Compounds of the invention were dissolved in DMSO finally present at 2% in the assay.

[2] = system: Rat aortic smooth muscle cells (RSMC); assay: cGMP level measurements in ANF-stimulated rat aortic smooth muscle cells; type: cell-based; details: 30 minutes at 37° C. with compound, then ANF (100 nM) for 10 minutes, dose giving half of the stimulation at saturating concentrations
Procedure: Rat aortic smooth muscle cells (RSMC), prepared according to Chamley et al., Cell Tissue Res., 177, 503-522 (1977), were used between the 10th and 25th passage at confluence in 24-well culture dishes. Culture media was aspirated and replaced with PBS (0.5 ml) containing the compound tested at the appropriate concentration. After 30 minutes at 37° C., particulates guanylate cyclase was stimulated by addition of ANF (100 nM) for 10 minutes. At the end of incubation, the medium was withdrawn, and two extractions were performed by addition of 65% ethanol (0.25 ml). The two ethanolic extracts were pooled and evaporated until dryness, using a Speed-vac system. cGMP was measured after acetylation by scintillation proximity immunoassay (AMERSHAM). The EC50 values are expressed as the dose-giving half of the stimulation at saturating concentrations.

[3] = system: conscious spontaneously hypertensive rats (SHRs); assay: Hypotensive effects in conscious spontaneously hypertensive rats; type: in vivo, rat; details: orally 5 mg/kg in 5% DMF and 95% olive oil; AUC from 0 to 5 hours of the fall in blood pressure
Procedure: The hypotensive effects of compounds according to the invention as identified in Table 2 were studied in conscious spontaneously hypertensive rats (SHRs). The compounds were administered orally at a dose of 5 mg/kg in a mixture of 5% DMF and 95% olive oil. Blood pressure was measured from a catheter inserted in the carotid artery and recorded for five hours after administration. The results are expressed as Area Under the Curve (AUC) from 0 to 5 hours, mm Hg.hours of the fall in blood pressure over time.

Row | SMILES | IC50 [1] | EC50 [2] | melting point | SHR AUC PO [3]
1 | CN1CCN(c2ccc(/C=C/C(=O)N3CCc4c([nH]c5ccccc45)[C@H]3c3ccc4c(c3)CCO4)cn2)CC1 [Example 9, (E)-(R)-1-[1-(2,3-Dihydrobenzofuran-5-yl)-2,3,4,9-tetrahydro-β-carbolin-2-yl]-3-[6-(4-methylpiperazin-1-yl)-pyridin-3-yl]-propene-1-one] | 25 nM | 1000 nM | > 260 °C | 63 mm Hg.h
2 | CN(C)CCOc1ccc(/C=C/C(=O)N2CCc3c([nH]c4ccccc34)[C@H]2c2ccc3c(c2)CCO3)cn1 [Example 6, (E)-1R-1-[1-(2,3-Dihydrobenzofuran-5-yl)-2,3,4,9-tetrahydro-β-carbolin-2-yl]-3-[6-(2-dimethylaminoethoxy)-pyridin-3-yl]-propene-1-one] | 10 nM | < 1000 nM | 155 °C | 95 mm Hg.h
3 | O=C(O)c1ccc(/C=C/C(=O)N2CCc3c([nH]c4ccccc34)[C@H]2c2ccc3c(c2)CCO3)nc1 [Example 12, (E)-(R)-6-{3-[1-(2,3-Dihydrobenzofuran-5-yl)-2,3,4,9-tetrahydro-β-carbolin-2-yl]-3-oxo-propenyl}-nicotinic acid] | 3 nM | 5000 nM | 183 °C | 
4 | CNc1ccc(/C=C/C(=O)N2CCc3c([nH]c4ccccc34)[C@H]2c2ccc3c(c2)CCO3)cn1 [Example 8, (E)-(R)-1-[1-(2,3-Dihydrobenzofuran-5-yl)-2,3,4,9-tetrahydro-β-carbolin-2-yl]-3-(6-methylaminopyridin-3-yl)-propene-1-one] | 7 nM | < 1000 nM | 171 °C | 50 mm Hg.h
5 | CN(C)c1ccc(/C=C/C(=O)N2CCc3c([nH]c4ccccc34)[C@H]2c2ccc3c(c2)CCO3)cn1 [Example 7, (E)-(R)-1-[1-(2,3-Dihydrobenzofuran-5-yl)-2,3,4,9-tetrahydro-β-carbolin-2-yl]-3-(6-dimethylamino-pyridin-3-yl)-propene-1-one] | 6 nM | < 1000 nM | 171 °C | 156 mm Hg.h
6 | O=C(/C=C/c1cnc(N2CCCC2)nc1)N1CCc2c([nH]c3ccccc23)[C@H]1c1ccc2c(c1)CCO2 [Example 22] | 6 nM | < 1000 nM |  | 9 mm Hg.h
7 | O=C(/C=C/c1ccc(CN2CCCC2)s1)N1CCc2c([nH]c3ccccc23)[C@H]1c1ccc2c(c1)CCO2 [Example 15, (E)-1R-1-[1-(2,3-Dihydrobenzofuran-5-yl)-2,3,4,9-tetrahydro-β-carboline-2-yl]-3-(5-pyrrolidin-1-ylmethyl-thiophen-2-yl)-propene-1-one] | 40 nM | 1500 nM |  | 96 mm Hg.h
8 | CN1CCN(Cc2ccc(/C=C/C(=O)N3CCc4c([nH]c5ccccc45)[C@H]3c3ccc4c(c3)CCO4)s2)CC1 [Example 16, (E)-1R-1-[1-(2,3-Dihydrobenzofuran-5-yl)-2,3,4,9-tetrahydro-β-carboline-2-yl]-3-(4-methyl-piperazin-1-ylmethyl-thiophen-2-yl)-propene-1-one] | 4 nM | 3500 nM |  | 
9 | O=C(/C=C/c1ccc([N+](=O)[O-])s1)N1CCc2c([nH]c3ccccc23)[C@H]1c1ccc2c(c1)CCO2 [Example 26, (E)-1R-1-[1-(2,3-Dihydrobenzofuran-5-yl)-2,3,4,9-tetrahydro-β-carboline-2-yl]-3-(5-nitro-thiophen-2-yl)-propene-1-one] | 40 nM | < 1000 nM |  | 
10 | O=C(/C=C/c1ccccn1)N1CCc2c([nH]c3ccccc23)C1c1ccc2c(c1)OCO2 (stereo not drawn) [Example 2, (E)-1-[1-(3,4-Methylenedioxyphenyl)-2,3,4,9-tetrahydro-β-carbolin-2-yl]-3-(pyridin-2-yl)-propene-1-one] | 76 nM |  | 135 to 141 °C | 
11 | COC(=O)c1ccc(/C=C/C(=O)N2CCc3c([nH]c4ccccc34)[C@H]2c2ccc3c(c2)CCO3)nc1 [Example 11, (E)-(R)-6-{3-[1-(2,3-Dihydrobenzofuran-5-yl)-2,3,4,9-tetrahydro-β-carbolin-2-yl]-3-oxo-propenyl}-nicotinic acid methyl ester] | 27 nM | < 1000 nM | > 260 °C | 
12 | O=C(/C=C/c1ccccn1)N1CCc2c([nH]c3ccccc23)C1c1ccccc1 (stereo not drawn) [Example 3, (E)-1-[1-phenyl-2,3,4,9-tetrahydro-β-carbolin-2-yl]-3-(pyridin-2-yl)-propene-1-one] | 740 nM |  | 130 to 135 °C | 
13 | CN1CCN(c2ncc(/C=C/C(=O)N3CCc4c([nH]c5ccccc45)[C@H]3c3ccc4c(c3)CCO4)cn2)CC1 [Example 23] | 8 nM | < 1000 nM |  | 108 mm Hg.h
14 | CN(C)Cc1ccc(/C=C/C(=O)N2CCc3c([nH]c4ccccc34)[C@H]2c2ccc3c(c2)CCO3)o1 [Example 17, (E)-1R-1-[1-(2,3-Dihydrobenzofuran-5-yl)-2,3,4,9-tetrahydro-β-carboline-2-yl]-3-(5-dimethylaminomethyl-furan-2-yl)-propene-1-one] | 20 nM | < 1000 nM |  | 40 mm Hg.h
15 | O=C(/C=C/c1ccc(N2CCCC2)nc1)N1CCc2c([nH]c3ccccc23)[C@H]1c1ccc2c(c1)CCO2 [Example 10, (E)-(R)-1-[1-(2,3-Dihydrobenzofuran-5-yl)-2,3,4,9-tetrahydro-β-carbolin-2-yl]-3-(6-pyrrolidin-1-yl-pyridin-3-yl)-propene-1-one] | 9 nM | < 1000 nM | 201 °C | 

The remaining compounds from weak to strong by IC50 [1], led by results:

Row | IC50 [1] | EC50 [2] | melting point | SMILES | SHR AUC PO [3]
16 | 58 nM | 500 nM | 240 °C | O=C(/C=C/c1cccnc1)N1CCc2c([nH]c3ccccc23)C1c1ccc2c(c1)OCO2 (stereo not drawn) [Example 1, (E)-1-[1-(3,4-Methylenedioxyphenyl)-2,3,4,9-tetrahydro-β-carbolin-2-yl]-3-(pyridin-3-yl)-propene-1-one] | 61 mm Hg.h
17 | 46 nM | 500 nM | 224 to 225 °C | O=C(/C=C/c1ccncc1)N1CCc2c([nH]c3ccccc23)C1c1ccc2c(c1)OCO2 (centres unmarked) [Example 4] | 
18 | 40 nM | 4000 nM |  | CN(C)Cc1occc1/C=C/C(=O)N1CCc2c([nH]c3ccccc23)[C@H]1c1ccc2c(c1)CCO2 [Example 19, (E)-1R-1-[1-(2,3-Dihydrobenzofuran-5-yl)-2,3,4,9-tetrahydro-β-carboline-2-yl]-3-(2-dimethylaminomethyl-furan-3-yl)-propene-1-one] | 
19 | 40 nM | < 1000 nM |  | O=C(/C=C/c1cncnc1)N1CCc2c([nH]c3ccccc23)[C@H]1c1ccc2c(c1)CCO2 [Example 20, (E)-1R-1-[1-(2,3-Dihydrobenzofuran-5-yl)-2,3,4,9-tetrahydro-β-carboline-2-yl]-3-(pyrimidin-5-yl)-propene-1-one] | 48 mm Hg.h
20 | 30 nM | < 1000 nM | 163 °C | CN(C)Cc1ccc(/C=C/C(=O)N2CCc3c([nH]c4ccccc34)[C@H]2c2ccc3c(c2)CCO3)cn1 [Example 13, (E)-(R)-1-[1-(2,3-Dihydrobenzofuran-5-yl)-2,3,4,9-tetrahydro-β-carbolin-2-yl]-3-(6-dimethylaminomethyl-pyridin-3-yl)-propene-1-one] | 57 mm Hg.h
21 | 14 nM | < 1000 nM | 221 to 222 °C | O=C(/C=C/c1cccnc1)N1CCc2c([nH]c3ccccc23)C1c1ccc2c(c1)CCO2 (stereo not drawn) [Example 5, (E)-1-[1-(2,3-Dihydrobenzofuran-5-yl)-2,3,4,9-tetrahydro-β-carbolin-2-yl]-3-(pyridin-3-yl)-propene-1-one] | 12 mm Hg.h
22 | 7 nM | < 1000 nM |  | Nc1ncc(/C=C/C(=O)N2CCc3c([nH]c4ccccc34)[C@H]2c2ccc3c(c2)CCO3)cn1 [Example 21, (E)-1R-1-[1-(2,3-Dihydrobenzofuran-5-yl)-2,3,4,9-tetrahydro-β-carboline-2-yl]-3-(2-amino-5-pyrimidin-5-yl)-propene-1-one] | 124 mm Hg.h
23 | 5 nM | 1500 nM |  | CN(C)Cc1ccc(/C=C/C(=O)N2CCc3c([nH]c4ccccc34)[C@H]2c2ccc3c(c2)CCO3)s1 [Example 14, (E)-1R-1-[1-(2,3-Dihydrobenzofuran-5-yl)-2,3,4,9-tetrahydro-β-carboline-2-yl]-3-(5-dimethylaminomethyl-thiophen-2-yl)-propene-1-one] | 107 mm Hg.h
